This note sets out measurements from patent publication US7238688B2, “Piperidine compounds” (Schering Corporation, priority 2001, dated 2007).

Where “and” joins values, the source holds several entries; their conditions need not be identical. Equal values may be shown once.

For the test, the target named is T1, H3 receptors (Cavia porcellus, UniProt Q9JI35).
T1 construct: The source of the H3 receptors in this experiment was guinea pig brain; from tissue; host or cells: guinea pig brain membranes
Kind of test: H3-Receptor Binding Assay. The note with it: guinea pig brain membranes; 3 nM [3H]R-α-methyl histamine or 3 nM [3H]N-methyl histamine; 30° C. for 30 min. Here is the method:
General Procedure for H3-Receptor Binding Assay
The source of the H3 receptors in this experiment was guinea pig brain. The animals weighed 400–600 g. The brain tissue was homogenized with a solution of 50 mM Tris, pH 7.5. The final concentration of tissue in the homogenization buffer was 10% w/v. The homogenates were centrifuged at 1,000×g for 10 min. in order to remove clumps of tissue and debris. The resulting supernatants were then centrifuged at 50,000×g for 20 min. in order to sediment the membranes, which were next washed three times in homogenization buffer (50,000×g for 20 min. each). The membranes were frozen and stored at −70° C. until needed.
All compounds to be tested were dissolved in DMSO and then diluted into the binding buffer (50 mM Tris, pH 7.5) such that the final concentration was 2 μg/ml with 0.1% DMSO. Membranes were then added (400 μg of protein) to the reaction tubes. The reaction was started by the addition of 3 nM[^3H]R-α-methyl histamine (8.8 Ci/mmol) or 3 nM [^3H]N[…] -methyl histamine (80 Ci/mmol) and continued under incubation at 30° C. for 30 min. Bound ligand was separated from unbound ligand by filtration, and the amount of radioactive ligand bound to the membranes was quantitated by liquid scintillation spectrometry.

T1 sequence (Q9JI35 whole entry): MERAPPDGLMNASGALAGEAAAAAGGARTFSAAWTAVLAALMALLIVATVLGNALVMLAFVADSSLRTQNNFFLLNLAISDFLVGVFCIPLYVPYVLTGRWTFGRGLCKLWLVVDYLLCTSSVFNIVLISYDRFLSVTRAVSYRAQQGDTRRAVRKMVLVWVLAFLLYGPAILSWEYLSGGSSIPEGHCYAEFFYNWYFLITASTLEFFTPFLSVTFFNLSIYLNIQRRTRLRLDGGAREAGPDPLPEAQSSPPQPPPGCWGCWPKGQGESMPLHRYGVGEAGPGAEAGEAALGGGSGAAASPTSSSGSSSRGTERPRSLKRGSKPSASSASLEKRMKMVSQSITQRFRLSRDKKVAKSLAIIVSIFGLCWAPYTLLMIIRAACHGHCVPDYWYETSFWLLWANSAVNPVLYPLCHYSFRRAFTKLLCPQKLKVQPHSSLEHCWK

The term Ki denotes the equilibrium dissociation constant of an inhibitor or competing ligand from its target. `O=C(C1CCN(Cc2ccncc2)CC1)N1CCN(Cc2ccccc2Br)CC1` [Compound 93] returned a Ki of 0.2 to 35 nM.

`O=C(NCCc1ccccc1)c1cccc(CN2CCN(C(=O)C3CCN(Cc4ccncc4)CC3)CC2)c1` [Compound 276] had a Ki of 0.2 to 35 nM.

In the case of `Nc1cc(CN2CCC(C(=O)N3CCN(Cc4c(F)ccc(F)c4F)CC3)CC2)ccn1` [Compound 306], the Ki was 0.2 to 35 nM and 2 to 22 nM.

Consider `Nc1cc(CN2CCC(C(=O)N3CCN(Cc4cccc(Cl)c4S(=O)(=O)N4CCOCC4)CC3)CC2)ccn1` [Compound 317], for which the inhibition constant (Ki) lay in the range of 0.2 to 35 nM.

`Nc1cc(CN2CCC(C(=O)N3CCN(Cc4cc(F)ccc4Br)CC3)CC2)ccn1` [Compound 328] displayed an inhibition constant Ki of 0.2 to 35 nM.

Compound `Cc1noc(C)c1CN1CCN(C(=O)C2CCN(Cc3ccnc(N)c3)CC2)CC1` [Compound 331] had a Ki of 0.2 to 35 nM.

As to `CN(C)S(=O)(=O)c1cc(F)ccc1CN1CCN(C(=O)C2CCN(Cc3ccnc(N)c3)CC2)CC1` [Compound 332], the Ki was 0.2 to 35 nM and 2 to 22 nM.

As for `Nc1cc(CN2CCC(C(=O)N3CCN(Cc4cc(-c5ccc(Cl)cc5)on4)CC3)CC2)ccn1` [Compound 333], the inhibition constant (Ki) is 0.2 to 35 nM and 2 to 22 nM.

On to `Nc1cc(CN2CCC(C(=O)N3CCN(Cc4c(F)cccc4Cl)CC3)CC2)ccn1` [Compound 336], for which the Ki was 0.2 to 35 nM and 2 to 22 nM.

`CN(c1ccc(Cl)cc1)S(=O)(=O)c1cc(F)ccc1CN1CCN(C(=O)C2CCN(Cc3ccnc(N)c3)CC2)CC1` [Compound 343] registered a Ki of 0.2 to 35 nM.

For `Nc1cc(CN2CCC(C(=O)N3CCN(S(=O)(=O)c4ccc(Cl)cc4)CC3)CC2)ccn1` [Compound 366], the Ki was 0.2 to 35 nM and 2 to 22 nM.

Regarding `CN(C)S(=O)(=O)N1CCN(C(=O)C2CCN(Cc3ccnc(N)c3)CC2)CC1` [Compound 367], the inhibitory constant (Ki) lay within 0.2 to 35 nM.

With `Nc1cc(CN2CCC(C(=O)N3CCN(S(=O)(=O)c4ccccc4Cl)CC3)CC2)ccn1` [Compound 374], the Ki was 0.2 to 35 nM and 2 to 22 nM.

For `Nc1cc(CN2CCC(C(=O)N3CCN(S(=O)(=O)c4cc(Cl)cc(Cl)c4)CC3)CC2)ccn1` [Compound 376], the Ki lay in the range of 0.2 to 35 nM.
